This is an account of results in US11779561B2, “Compounds and pharmaceutical uses thereof” (priority 2020, dated 2023).

For assay [1], the target named is SARS-CoV-2 3CLPro (Severe acute respiratory syndrome coronavirus 2, UniProt P0DTD1). Put plainly: Native-PAGE binding with SARS-CoV-2 viral 3CLPro (Example 8). The note with it: 62.5-1000 μM samples mixed with 40 μM 3CLPro, 4° C., 3 hours.
Assay [2] addresses 3CLPro (Severe acute respiratory syndrome coronavirus 2, UniProt P0DTD1). Particulars: cited from earlier work; for IC50: read-out: IC50 (inhibition of 3CLPro), summary of Table 3.
Assay [3] has as its system SARS-CoV-2. As to the kind of experiment: SARS-CoV-2 virucidal assay in Vero E6 cells (qPCR of viral genome). It is filed as cell-based. Particulars: Vero E6, MOI=0.01, 24 h. On the technique in general: Quantitative PCR measures a nucleic acid by following its amplification.
Assay [4] has as its target 2019-nCoV 3CLPro (Severe acute respiratory syndrome coronavirus 2, UniProt P0DTD1). As to the kind of experiment: 2019-nCoV 3CLPro proteolytic activity, fluorogenic substrate, samples at 3 μM (Example 4). Type of assay: biochemical. The note with it: estimated from single concentration 3 μM; read-out: approximately half maximal inhibition (IC50) at the concentration.

The structures appear in SMILES notation. Values joined by “and” are separate entries in the source; they are usually repeats but may differ in a detail not shown here. Equal entries are not always repeated. A value given as a limit tells only on which side of the number the result lay.

`O=C(O)c1cc(O)c(O)c(O)c1` [GA, gallic acid]: the “binding to SARS-CoV-2 3CLPro by native-PAGE (mobility shift)” value (“binding … (mobility shift)” below) in assay [1] is “no significant binding”. As to `Cc1cccc(C)c1OCC(=O)N[C@@H](Cc1ccccc1)[C@@H](O)C[C@H](Cc1ccccc1)NC(=O)[C@H](C(C)C)N1CCCNC1=O` [Lopinavir], the “IC50 of the 3CLPro (result in words)” value in assay [2] (20 μM, Ma et al., 2020) is given as 20 μM, failed to inhibit. For the same compound, in assay [2], the IC50 was greater than 100 µM. Regarding `Cc1c(O)cccc1C(=O)N[C@@H](CSc1ccccc1)[C@H](O)CN1C[C@H]2CCCC[C@H]2C[C@H]1C(=O)NC(C)(C)C` [Nelfinavir], the IC50 in assay [2] is greater than 100 µM. On to `CCC(CC)COC(=O)[C@H](C)N[P@](=O)(OC[C@H]1O[C@@](C#N)(c2ccc3c(N)ncnn23)[C@H](O)[C@@H]1O)Oc1ccccc1` [Remdesivir], for which the EC99 in assay [3] (cell layer) was 15 µM and 15.000 µM; in assay [3] (supernatant), 15 µM and 15.000 µM. On to `O=C(OC[C@H]1O[C@H](OC(=O)c2cc(O)c(O)c(O)c2)[C@H](OC(=O)c2cc(O)c(O)c(O)c2)[C@@H](OC(=O)c2cc(O)c(O)c(O)c2)[C@@H]1OC(=O)c1cc(O)c(O)c(O)c1)c1cc(O)c(O)c(O)c1` [Sample 1], for which the potency estimated from few doses in assay [4] is roughly 3 µM.

For the compound `O=C(OC[C@H]1O[C@@H](OC(=O)c2cc(O)c(O)c(O)c2)[C@H](OC(=O)c2cc(O)c(O)c(O)c2)[C@@H](OC(=O)c2cc(O)c(O)c(O)c2)[C@@H]1OC(=O)c1cc(O)c(O)c(O)c1)c1cc(O)c(O)c(O)c1` [Sample 2, (2S,3R,4S,5R,6R)-3,4,5-tris(3,4,5-trihydroxybenzoyloxy)-6-((3,4,5-trihydroxybenzoyloxy)methyl)oxan-2-yl 3,4,5-trihydroxybenzoate], the potency estimated from few doses in assay [4] was roughly 3 µM. With `O=C(OC[C@H]1O[C@@H](OC(=O)c2cc(O)c(O)c(OC(=O)c3cc(O)c(O)c(O)c3)c2)[C@H](OC(=O)c2cc(O)c(O)c(OC(=O)c3cc(O)c(O)c(O)c3)c2)[C@@H](OC(=O)c2cc(O)c(O)c(OC(=O)c3cc(O)c(O)c(O)c3)c2)[C@@H]1OC(=O)c1cc(O)c(O)c(OC(=O)c2cc(O)c(O)c(O)c2)c1)c1cc(O)c(O)c(OC(=O)c2cc(O)c(O)c(O)c2)c1` [Sample 4, (2S,3R,4S,5R,6R)-3,4,5-tris(3,4-dihydroxy-5-(3,4,5-trihydroxybenzoyloxy)benzoyloxy)-6-((3,4-dihydroxy-5-(3,4,5-trihydroxybenzoyloxy)benzoyloxy)methyl)oxan-2-yl 3,4-dihydroxy-5-(3,4,5-trihydroxybenzoyloxy)benzoate], the “binding … (mobility shift)” value in assay [1] is reported as “significant binding”.

As to `O=C(OC[C@H]1O[C@@H](OC(=O)c2cc(O)c(O)c(OC(=O)c3cc(O)c(O)c(OC(=O)c4cc(O)c(O)c(O)c4)c3)c2)[C@H](OC(=O)c2cc(O)c(O)c(OC(=O)c3cc(O)c(O)c(OC(=O)c4cc(O)c(O)c(O)c4)c3)c2)[C@@H](OC(=O)c2cc(O)c(O)c(OC(=O)c3cc(O)c(O)c(OC(=O)c4cc(O)c(O)c(O)c4)c3)c2)[C@@H]1OC(=O)c1cc(O)c(O)c(OC(=O)c2cc(O)c(O)c(OC(=O)c3cc(O)c(O)c(O)c3)c2)c1)c1cc(O)c(O)c(OC(=O)c2cc(O)c(O)c(OC(=O)c3cc(O)c(O)c(O)c3)c2)c1` [Sample 6, (2S,3R,4S,5R,6R)-6-(((3-((3,4-dihydroxy-5-((3,4,5-trihydroxybenzoyl)oxy)benzoyl)oxy)-4,5-dihydroxybenzoyl)oxy)methyl)tetrahydro-2H-pyran-2,3,4,5-tetrayl tetrakis(3-((3,4-dihydroxy-5-((3,4,5-trihydroxybenzoyl)oxy)benzoyl)oxy)-4,5-dihydroxybenzoate)], the “binding … (mobility shift)” value in assay [1] was “significant binding”.

Take `CC(C)(C)NC(=O)[C@@H]1C[C@@H]2CCCC[C@@H]2CN1C[C@@H](O)[C@H](Cc1ccccc1)NC(=O)[C@H](CC(N)=O)NC(=O)c1ccc2ccccc2n1` [Saquinavir]: the concentration for half-maximal inhibition (IC50) in assay [2] was greater than 100 µM. For `CCC[C@@]1(CCc2ccccc2)CC(O)=C([C@H](CC)c2cccc(NS(=O)(=O)c3ccc(C(F)(F)F)cn3)c2)C(=O)O1` [Tipranavir], the IC50 in assay [2] was greater than 100 µM.

Usually IC50 stands for the point on the concentration scale where inhibition reaches its midpoint. Broadly, the EC99 is the concentration needed for an effect of 99%. A low value points to an effect from little substance.
